Data from patent US11464749B2, “Bismuth-thiol compositions and methods of use” (Microbion Corporation, priority 2018, dated 2022).
Values after ≈ are worked out from the molar mass of the structure shown.

What was measured:
B. cepacia = assay: Broth microdilution MIC (Example 10); details: initial MIC testing
P. aeruginosa = assay: Broth microdilution MIC (Example 10); details: initial MIC testing
Burkholderia spp. = assay: organism not typed; type: cell-based; details: during FIC testing; B. multivorans isolate 1795 (MEM-I, CIP-R)
Pseudomonas aeruginosa = details: P. aeruginosa MMX 103 (ATCC 27853); CLSI QC ranges shown in parenthesis; cited from earlier work
[1] = Phase 1 human clinical studies, topical tolerability; type: in vivo; details: humans

C[C@@H](O)[C@H]1C(=O)N2C(C(=O)O)=C(S[C@@H]3CN[C@H](C(=O)N(C)C)C3)[C@H](C)[C@H]12 [MEM]
MIC (B. cepacia; B. cepacia isolate 0546): 4 µg/mL (≈ 10.4 µM) | MIC (B. cepacia; B. cepacia isolate 0547): 2 µg/mL (≈ 5.22 µM) | MIC (B. cepacia; B. cepacia isolate 1793): 4 µg/mL (≈ 10.4 µM) | MIC (B. cepacia; B. cepacia isolate 1794): 4 µg/mL (≈ 10.4 µM) | MIC (B. cepacia; B. cepacia isolate 9040): 4 µg/mL (≈ 10.4 µM) | MIC (P. aeruginosa; P. aeruginosa isolate 103): 1 µg/mL (≈ 2.61 µM) | MIC (P. aeruginosa; P. aeruginosa isolate 1497 (TOB-R, AMK-R, CIP-I, AZT-R, COL-R)): 0.06 µg/mL (≈ 0.156 µM) | MIC (P. aeruginosa; P. aeruginosa isolate 1530 (TOB-R, AMK-R, CIP-R)): 0.5 µg/mL (≈ 1.3 µM) | MIC (P. aeruginosa; P. aeruginosa isolate 1553 (TOB-R, AMK-R, CIP-R)): 0.5 µg/mL (≈ 1.3 µM) | MIC (P. aeruginosa; P. aeruginosa isolate 6322 (MEM-R, TOB-R, AMK-R, CIP-R, AZT-R)): 16 µg/mL (≈ 41.7 µM) | MIC (P. aeruginosa; P. aeruginosa isolate 6977 (MEM-I, TOB-R, CIP-R, AZT-I)): 4 µg/mL (≈ 10.4 µM) | MIC (P. aeruginosa; P. aeruginosa isolate 7745 (MEM-R, CIP-R, AZT-R)): 16 µg/mL (≈ 41.7 µM) | MIC (P. aeruginosa; P. aeruginosa isolate 7754 (MEM-R, TOB-R, CIP-R, AZT-I)): 32 µg/mL (≈ 83.4 µM) | MIC (P. aeruginosa; P. aeruginosa isolate 7762 (MEM-I, CIP-I)): 4 µg/mL (≈ 10.4 µM) | MIC (P. aeruginosa; P. aeruginosa isolate 7871 (MEM-R, AZT-I)): 8 µg/mL (≈ 20.9 µM) | MIC (P. aeruginosa; P. aeruginosa isolate 7874): 1 µg/mL (≈ 2.61 µM) | MIC (P. aeruginosa; P. aeruginosa isolate 7886 (MEM-R, CIP-R, AZT-R)): 32 µg/mL (≈ 83.4 µM) | MIC (P. aeruginosa; P. aeruginosa isolate 8797 (MEM-R, TOB-R, AMK-R, CIP-R, AZT-R, COL-R)): 32 µg/mL (≈ 83.4 µM) | MIC (P. aeruginosa; P. aeruginosa isolate 8798 (MEM-R, TOB-R, AMK-R, CIP-R, AZT-R, COL-R)): 64 µg/mL (≈ 167 µM) | MIC (P. aeruginosa; P. aeruginosa isolate 9108 (CIP-R, AZT-I)): 0.5 µg/mL (≈ 1.3 µM) | MIC (Burkholderia spp.): 4 µg/mL

C[C@@H](O)[C@H]1C(=O)N2C(C(=O)O)=C(S[C@@H]3CN[C@H](C(=O)N(C)C)C3)[C@H](C)[C@H]12 [Meropenem, reference compound]
CLSI QC range of MIC (Pseudomonas aeruginosa): (0.25-1) μg/mL

C1C[S][Bi]([S]CC[S][Bi]2[S]CC[S]2)[S]1 [BisEDT, bismuth-1,2-ethanedithiol]
concentration well-tolerated when administered topically ([1]; 6 hours): up to 2500 μg/cm^2 | concentration tolerated when administered topically ([1]; over 21 days continuous exposure, normal and abraded skin): up to 75 μg/cm^2
